Test results: patent publication US12599674B2, “Conjugates, their compositions, and their related methods” (THE ADMINISTRATORS OF THE TULANE EDUCATIONAL FUND, priority 2021, dated 2026)
“Also recorded” adds a separate entry of the source.

Experiments:
[1] = test system: human gastric tumor SGC-7901 cells; test: Xenograft mouse model, SGC-7901 tumor growth; assay type: in vivo, BALB/c nude mice; settings: tail vein; 100 μl containing 0.4 mg of AP-3 on days 0 and 14; nude mice; compared to controls
Method: Female BALB/c nude mice aged at 4-6 weeks-old were purchased (Tyercan, Ltd, Shenzhen) and reared in the laboratory animal facility for one week to adapt to the new environment. A total of 5×10^6 human gastric tumor SGC-7901 cells (200 μl) were inoculated into the right flank of each mouse by subcutaneous injection. When the tumor sizes reached 100-300 mm^3 (tumor volume=0.5×Length×Width^2), tumor-carrying mice in the experimental group were given (via tail vein injection) a first dose (at day zero) of 100 μl of AP3-HSA 200 mg/kg and a second dose (at day 14) of 150 mg/kg. A control group was injected with 100 μl of AP-3 containing 0.4 mg of AP-3 on days 0 and 14 in a similar fashion. 100 μl of normal saline was injected via the tail vein in a second control group on the same days. Tumor volumes were measured and mouse bodies were weighed twice a week since the first administration.

[2] = Body weights in U-937 xenograft study; assay type: in vivo; settings: U-937 xenograft SCID mice, tail vein AP3 0.5 mg/kg days 0 and 15 (FIG. 11 legend)
Method: Female SCID mice (Tyercan, Ltd, Shenzhen) aged at 4-6 weeks-old were purchased and reared in the laboratory animal facility for one week to adapt to the new environment. A total of 5×10^6 human U-937 lymphoma tumor cells (200 μl) were inoculated into the right flank of each mouse by subcutaneous injection. […] […] 100 μl of normal saline was injected via the tail vein in a second control group on the same days. Tumor volumes were measured and mouse bodies were weighed twice a week since the first administration.

COc1cc2cc(c1Cl)N(C)C(=O)C[C@H](OC(=O)C(C)C)[C@]1(C)O[C@@H]1[C@H](C)[C@@H]1C[C@@](O)(NC(=O)O1)[C@H](OC)/C=C/C=C(\C)C2 [AP3, Ansamitocin P3]
effect on growth of SGC-7901 tumors [1]: only marginally effective | recovery of body weights after treatment [2]: returned to normal about a week after the final injections | effect on body weights ([2]; 0.5 mg/kg): decreases in body weight; also recorded: weight losses
